Consider two compounds from US20260174682A1, “GAMMA-AMINOBUTYRIC ACID DERIVATIVE COMPRISING POLYCYCLIC STRUCTURE, METHOD FOR PREPARING SAME, AND USE THEREOF” (ZHONGSHAN INSTITUTE FOR DRUG DISCOVERY, SIMM, CAS., priority 2022, published 2026).

Marks after values point to notes of the source that are not given here.

Data set [1] has as its system Sprague Dawley (SD) rat spared nerve injury (SNI) model. In words: Analgesic effect in rat spared nerve injury (SNI) chronic neuropathic pain model. It is filed as in vivo. The settings on record: SNI rats. The protocol: Establishment of the SNI model: Surgery was performed according to an aseptic operation method, and various surgical instruments, including scalpels, tweezers, suture needles/threads, surgical cotton, etc., were disinfected before the surgery. Animals were anesthetized by intraperitoneal injection of a Zoletil™ 50 solution at 50 mg/kg and then placed in lateral decubitus positions. After hair in surgical areas of lower bodies of animals was shaved, the animals were disinfected alternately with iodophor and 75% alcohol. The skin was cut at upper edges of left hind limbs, muscles were bluntly separated to expose a sciatic nerve trunk and 3 branches thereof, i.e., a tibial nerve, a common peroneal nerve and a sural nerve. The tibial nerve and the common peroneal nerve were ligated and cut, and the sural nerve was preserved and maintained intact. After the surgery, wounds were sutured layer by layer, the animals were administered with 25% ampicillin (1 mL/kg) through intraperitoneal injection to prevent infection, and routine nursing was performed. In sham group, only the sciatic nerve and the branches thereof were exposed, the nerves were not ligated and cut, and other operations were the same as those in the model group. Detection of a mechanical pain threshold: A Von-frey test fiber was used to detect the mechanical pain threshold of the sole of an operative side of each animal on day 1, day 3 and day 7 after the surgery, respectively. An “up-and-down” method was used as a method of detecting the mechanical pain threshold at the stimulation intensity of 0.4, 0.6, 1, 2, 4, 6, 8, and 15 g. During the test, the test fiber was used to vertically stimulate the site, close to an outer side, in the sole center of the left hind paw of a rat for 6-8 seconds each time at an interval of 5 seconds. A pain response was shown as an obvious paw withdrawal, paw licking, or paw lifting behavior of the animals during each test. From day 11 after the surgery, the animals were placed in an experimental environment for adaptation, wherein the adaptation was performed continuously for 15 min per day for 3 days. On day 13, a basic value of mechanical pain hypersensitivity was detected after the adaptation was completed. The mechanical pain hypersensitivity was expressed by a 50% paw-withdrawal threshold (PWT) according to a calculation formula of 50% PWT (g)=10^xf+kδ, wherein xf is a log value of a fiber test force, k is a tabular value, and δ is an average spacing of the log value of the fiber test force.
Pharmacodynamic evaluation: According to basic threshold detection results on day 13 after the surgery, the animals in the model group without the mechanical pain hypersensitivity, that is, the PWT was greater than 4 g, were excluded, and the other successfully modeled animals were used for a formal test. On day 14 after the surgery, various compound to be tested were newly formulated. Pregabalin was directly dissolved with 0.9% sodium chloride at a dose of 30 mg/kg to obtain a solution at a desired concentration. (±)—I-7, (±)—I-3 and (±)—I-4 p-toluenesulfonate were also completely dissolved with a 0.9% sodium chloride solution at a dose of 30 mg/kg (calculated by free base). The successfully modeled animals were randomly divided into 5 groups with 8 animals in each group. In addition, 7 animals were selected in the sham group. […] The mechanical pain hypersensitivity response of the left hind paw was detected at 1 h, 2 h, 4 h, 6 h, 8 h, 10 h, and 24 h after the administration. Evaluation was performed by using a blind method, and a detection method was the same as above. An area under a mechanical pain threshold-time curve (AUC) was calculated using GraphPad Prism Version 8.0.1 software.

Data set [2] has as its system mouse model with subcutaneous injection of pentylenetetrazole (sc-PTZ). Nature of the data set: Antiepileptic effect in mouse model with subcutaneous injection of pentylenetetrazole (sc-PTZ). It is filed as in vivo. The conditions noted are these: for Clonic seizure incidence / Convulsive seizure incidence / Generalized clonic seizure incidence / Mortality / Tonic seizure incidence: sc-PTZ 100 mg/kg, ICR mice, intraperitoneal 30 mg/kg (own compounds calculated by free base), 1 h observation; for latent periods of generalized clonic seizures, tonic seizures and death: 30 mg/kg (calculated by free base), FIG. 6. The protocol: A negative vehicle control group, a positive drug control group (pregabalin and gabapentin) and a test group of the compounds of the present application were set. Male ICR mice with a body weight of 22±2 g were selected. […] After fasted for 12 h, the mice were administered the compounds of the present application or the control drugs, and then subcutaneously injected with pentylenetetrazole (PTZ) to induce epilepsy seizure behaviors after a certain time interval (2 h for pregabalin, 1 h for gabapentin, and 3 h for the compounds of the present application). In an induction model, pentylenetetrazole (PTZ) was dissolved in normal saline and administered to the mice through the way of subcutaneous injection (10 mL/kg, administration dose 100 mg/kg). After the injection of PTZ, behavioral observations on the mice were conducted for 1 h, and the latent periods and numbers of the mice with convulsive seizures, clonic seizures, tonic seizures and death after the injection of PTZ were recorded.
Statistical method: Protection rates and mortality of different administration groups were separately compared with those of the vehicle control group to carry out a Fisher's exact test. The seizure time and the latent periods were analyzed by one-way ANOVA.

The next data set relates to motor functions of rats. Nature of the data set: Rotarod test of impact on motor functions of rats. The conditions noted are these: male SD rats; for impact on rotarod behaviors of the rats: gavage 10 mg/kg (calculated by free base); for impact on rotarod behaviors of the rats / impact on rotarod behaviors of the rats (impacted proportion): FIG. 7; for impact on rotarod behaviors of the rats (impacted proportion): gavage 30 mg/kg (calculated by free base). The protocol: A negative vehicle control, a positive drug control group (pregabalin, (PGB), 10 mg/kg, 30 mg/kg) were set, and a test group (including (+)—I-3 p-toluenesulfonate at 10 mg/kg (calculated by free base), (+)—I-4 p-toluenesulfonate at 10 mg/kg (calculated by free base), (+)—I-3 p-toluenesulfonate at 30 mg/kg (calculated by free base) and (+)—I-4 p-toluenesulfonate at 30 mg/kg (calculated by free base)) were set. Male SD rats with the body weight of 200-250 g were selected, with 10 animals in each administration group. AYLS-31A fatigue rota-rod (Shanghai Xinruan Information Technology Co., Ltd.) was used as rotarod test equipment, and a rotation speed was set at a constant speed of 6 rpm. A screening test was carried out on the first day. Tail tips of the rats were pinched, placed on the rotarod, and released the same after the rats maintained balance on the rotarod and moved along with the rotarod. The falling number of the rats within the next 1 min was recorded and counted. The rats that fell for 3 times within 1 min were excluded, which were not used for subsequent drug evaluation. A drug evaluation test was carried out on the second day. The rats were fasted for 8 h before the test, then a rotarod test was carried out once to serve as a time point (BL) before administration, and then administration was performed by gavage. […] The falling number of the rats within 1 min was recorded and counted. The rats falling for 3 times within one min were regarded as having “motor function impairments” caused by drug toxicity. The “motor function impairment” degree (rotarod fall) of each administration group at a specific time point was calculated as a proportion of a number of the animals with “motor function impairments” in the group to a total number of the animals in the group.
The rotarod test is a classic test for measuring the damage of compounds to motor functions of animals.

[3] abbreviates: oral gavage 10 mg/kg (calculated by free base), from AUC of mechanical pain threshold-time curve to 24 h.

As to `Cc1ccc(S(=O)(=O)O)cc1.NCC1(CC(=O)O)CC2C3C=CC(C3)C21` (single isomer, unassigned; (+)) [(+)-I-4 p-toluenesulfonate], the “area under the mechanical pain threshold-time curve compared with the vehicle control group” value in data set [1] (oral gavage 10 mg/kg (calculated by free base)) is “significantly improved”. For the same compound, the “maximum possible effect (MPE)” value in data set [1] (setting [3]) was 69.09%. Besides, in data set [2], the Clonic seizure incidence is recorded as 10/10, the Convulsive seizure incidence was 10/10, the “Generalized clonic seizure incidence” value was 6/10 and the Mortality was 3/10. The Tonic seizure incidence in data set [2] is listed as 2/10. In data set [2] (sc-PTZ mice, 30 mg/kg), the “generalized clonic seizures (percent of animals; vehicle 100%)” value was 60% and the “tonic seizure incidence (percent of animals; vehicle 75%)” value stood at 20%. In addition, the “latent periods of generalized clonic seizures, tonic seizures and death” value in data set [2] (sc-PTZ mice) is on record as “significantly prolong”. Moreover, in the data set with motor functions of rats, the “impact on rotarod behaviors of the rats” value is listed as “no significant impact” and the “impact on rotarod behaviors of the rats (impacted proportion)” value is given as “smaller than that in the PGB group”.
Take `CC(C)C[C@H](CN)CC(=O)O` [Pregabalin]: the “maximum possible effect (MPE)” value in data set [1] (setting [3]) is on record as 23.04%. The “maximum possible effect (% MPE)” value in data set [1] (oral gavage 30 mg/kg (calculated by free base), from AUC of mechanical pain threshold-time curve to 24 h) is 110.90%. In data set [2], the Clonic seizure incidence is listed as 8/8, the Convulsive seizure incidence is 8/8, the “Generalized clonic seizure incidence” value was 5/8 and the Mortality was 1/8*. For the same compound, the Tonic seizure incidence in data set [2] is 1/8**. In data set [2] (sc-PTZ mice, 30 mg/kg), the “generalized clonic seizures (percent of animals; vehicle 100%)” value is listed as 62.5%, the “mortality (percent of animals; vehicle 75%)” value came to 12.5% and the “tonic seizure incidence (percent of animals; vehicle 75%)” value is 12.5%. Also, in data set [2] (sc-PTZ mice), the “latent periods of generalized clonic seizures, tonic seizures and death” value is “significantly prolong”. For the same compound, in the data set with motor functions of rats, the “impact on rotarod behaviors of the rats” value is given as “no significant impact” and the “impact on rotarod behaviors of the rats (impacted proportion)” value is given as “obvious toxic responses”. Besides, the “time of maximum impact on the rotarod behaviors after the administration” value with motor functions of rats (gavage 30 mg/kg) is 4 h.
